In a melting point compilation (Tetko et al.) one finds melting point data, which are given here for 114 molecules.

`O=C1c2ccccc2-c2c(O)cccc21` returned a melting point of 250 °C. As for `CCCCOC(=O)c1ccc([N+](=O)[O-])cc1`, the figure is 35.5 °C; as for `CCc1cccc(O)c1`, -4 °C. `NCC(F)C(=O)O` (racemic) returned a melting point of 222 to 223 °C. `O=C(Cl)C1=Cc2ccccc2OC1` yielded a melting point of 70 to 73 °C.

`OCc1cccnc1Cl` displayed a melting point of 54 to 55 °C.

Take `S=c1ssc(S)c1-c1ccccc1`: the melting point was 153 to 155 °C. Take `COc1cc(C)cc2c1C(=O)C2`: the melting point is 93 °C. As to `Cc1cc(C(C#N)c2ccc(Cl)cc2)c(Cl)cc1NC(=O)c1cc(I)cc(I)c1O` (centres undefined), the melting point was 218 °C. Molecule `CC(=O)C=C(C)N` yielded a melting point of 39 °C.

As for `O=C1C=CC2(CCC23C=CC(=O)O3)O1` (centres undefined), the melting point worked out at 158 °C. `CCCCCCCCCCCCCCCCCC(=O)OC(C)C` registered a melting point of 28 °C. For the molecule `Cc1cncc([N+](=O)[O-])c1`, the melting point came to 96 °C. `CCCCNc1cc(=O)oc2ccccc12` showed a melting point of 118 °C. `O=C(O)C(Br)CBr` (centres undefined) came in with a melting point of 66.5 °C. Turning to `OCC1OC(O)C(O)C(O)C1O` (centres undefined), the melting point was 170 °C.

`O=C(O)c1nc(Cl)c(Cl)c(Cl)c1Cl` came in with a melting point of 172 °C. In turn, `CN1C(=O)C(=NNC(N)=S)c2ccccc21` registered a melting point of 245 °C. With `COc1ccc(Br)cc1CC(NC(=O)OC(C)(C)C)C(=O)O` (centres undefined), the melting point came to 132 °C.

With `CC(C)(C)C1=NN(c2ccccc2)C(=O)C1`, the melting point stood at 110 °C. In turn, `O=C(Cl)c1cncc(Br)c1` registered a melting point of 84 to 86 °C.

`COC(=O)c1ccccc1S(=O)(=O)NC(=O)Nc1nc(OC(F)F)cc(OC(F)F)n1`: the melting point was 196 °C. The value for `CCCCCBr` was -92.7 °C; that for `CC(=O)OC1(C(C)=O)CCC2C3C=C(C)C4=CC(=O)CCC4(C)C3CCC21C` (centres undefined) was 214 °C; that for `O=C(O)c1cnn(-c2ccc([N+](=O)[O-])cc2[N+](=O)[O-])c1` was 260 to 262 °C. As for `CC(=O)CCc1oc2ccc([N+](=O)[O-])cc2c1-c1ccc(C)o1`, the figure is 124 °C; as for `OCCCc1nc2ccccc2[nH]1`, 164 to 166 °C; as for `OCC1OC(n2cnc3cncnc32)C(O)C1O` (centres undefined), 181 °C.

`O=C1CCCc2c1nc(-c1ccccc1)n2O`: the melting point fell in the range of 247 to 257 °C. With `CC(C)(S)C(N)C(=O)O` (centres undefined), the melting point was 212 °C.

For the molecule `COc1ccc(-c2onc(C(=O)c3ccc(Br)cc3)c2S(=O)(=O)c2ccccc2)cc1`, the melting point turned out to be 140 °C. The value for `O=C(O)C(O)(C(F)(F)F)C(F)(F)F` was 81 °C; that for `CCOC(=O)CC[C@H](NC(=O)c1ccc([N+](=O)[O-])cc1)C(=O)OCC` was 92 to 95 °C; that for `Cc1ccc(F)c(C#N)c1Cl` was 59 °C. As for `NC(=S)NCCN1CCCCC1`, the figure is 107 to 110 °C.

The molecule `COc1cc(F)c(C#N)cc1F` gave a melting point of 91 °C. The value for `CCSc1nc(N)c(Br)c(O)n1` was 300 °C. In the case of `Cc1cc(C(=O)CC#N)c(C(F)(F)F)o1`, the melting point is 75 to 77 °C. In the case of `CCCCCCCCOC(=O)CCC`, the melting point is -55.6 °C. The molecule `NC1=NN(c2ccccc2)C(=O)C1` came in with a melting point of 210 to 215 °C. In the case of `O=C(O)Cc1csc2ccc(Cl)cc12`, the melting point came to 154 °C.

As to `CC12CCC(C(=O)/C(=C\c3ccccc3[N+](=O)[O-])C1=O)C2(C)C` (centres undefined), the melting point is 140 to 141 °C. With `NC(=O)Cc1nc(-c2ccc(F)cc2)cs1`, the melting point came out at 182 °C. Molecule `c1cnc2c(c1)OCCN2` came in with a melting point of 85 to 86 °C. As for `O=C(NCCN=Cc1ccccn1)C(=O)NCc1ccccn1`, the figure is 125 °C; as for `NCCc1c[nH]c2ccc(O)cc12`, 168 °C. As to `Cc1cc(C)c([N+](=O)[O-])c(C)c1`, the melting point is 44 °C. In the case of `O=C(NCOC(=O)c1ccc(OCNC(=O)c2ccccc2)cc1)c1ccccc1`, the melting point fell in the range of 176 to 178 °C. In the case of `O=C(Cl)c1cc(Br)cc2c1OCC2`, the melting point lay in the range of 126 to 127 °C.

In turn, `CCOC(=O)c1[nH]c(C)c(CC)c1C` displayed a melting point of 87 to 88 °C.

`CCOC(=O)C=Cc1ccc(N=[N+]([O-])c2ccc(C=CC(=O)OCC)cc2)cc1` came in with a melting point of 141 °C. `N#Cc1ccc(N2CCCCC2)cc1`: the melting point was 51 to 53 °C. In the case of `O=C(O)COc1ccccc1[N+](=O)[O-]`, the melting point amounted to 158 °C.

For `O=C(Cl)c1ccc(N=Nc2ccccc2)cc1`, the melting point was in the range of 93 to 97 °C.

Molecule `COc1cc(-c2ccc(N=C=O)c(OC)c2)ccc1N=C=O` yielded a melting point of 114 °C. Molecule `O=C=Nc1cc([N+](=O)[O-])ccc1Cl` registered a melting point of 94 °C. Turning to `Clc1ncnc2sccc12`, the melting point stood at 105 °C.

For `Cc1ccc(S(=O)(=O)N(C)N=O)cc1`, the melting point amounted to 60 °C. Molecule `CCCCCCCCc1ccc(NC(=O)Oc2ccc(OC)cc2)cc1` came in with a melting point of 133 °C. `O=C(N[C@@H](Cc1ccccc1Br)C(=O)O)OCC1c2ccccc2-c2ccccc21` came in with a melting point of 168 °C. In turn, `CC12CCC(=O)C=C1CCC1C2C(O)CC2(C=O)C(C(=O)CO)CCC12` (centres undefined) gave a melting point of 167 °C. Consider `Cc1ccc(C(N)=O)cn1`, for which the melting point is 197 °C.

The molecule `O=Nc1c(-c2cccs2)nc2ncccn12` had a melting point of 239 °C. For `CC(NC(C)(C)C)C(=O)c1cccc(Cl)c1` (centres undefined), the melting point turned out to be 234 °C.

On to `CNN`, for which the melting point was -21 °C. For the molecule `NC(=O)c1ccc(Cl)nc1`, the melting point is 215 °C. For `CCCCCCCCCCCc1ccccc1`, the melting point is -5 °C. The molecule `CN(C)CCCN` showed a melting point of -60 °C.

For `Cc1onc(-c2ccccc2)c1C=O`, the melting point is 41 to 43 °C.

Take `c1cc(CCc2ccncc2)ccn1`: the melting point was in the range of 107 to 113 °C. Take `N=C1NC(=O)C(=NNc2ccccc2[N+](=O)[O-])S1`: the melting point turned out to be 274 °C. `C1SSCSSS1` returned a melting point of 60.5 °C. As for `Sc1nccc(-c2cccs2)n1`, the melting point was in the range of 206 to 215 °C. For `Nc1nn2c(C(F)(F)F)cc(-c3cccs3)nc2c1/N=N/c1ccc(F)cc1`, the melting point was found to be 220 °C. In the case of `CCOC1C(=O)NC2=C(C1=O)C(c1ccc(Br)cc1)c1c(c3ccccc3oc1=O)O2` (centres undefined), the melting point came out at 196 °C.

The molecule `Cc1nnsc1-c1nnc(S)n1C1CC1` returned a melting point of 212 to 213 °C. As for `C1=CCNCC1`, the figure is -48 °C; as for `COC(=O)c1c(C)oc(C)c1S(=O)(=O)Cl`, 70 to 71 °C; as for `O=C(O)c1ccc(N/N=C(\C(=O)c2cccs2)C(=O)C(F)(F)F)cc1`, 219 °C. The molecule `CCCCCCc1ccc(C(=O)O)cc1` had a melting point of 94 to 99 °C. `Nc1ccc2c(c1)CS(=O)(=O)C2` returned a melting point of 186 to 187 °C. For the molecule `Cc1ccc(OP(=O)(Oc2ccc(C)cc2)Oc2ccc(C)cc2)cc1`, the melting point came to 77.5 °C. As for `S=C=Nc1ccc(Cl)c(Cl)c1Cl`, the figure is 69.5 °C.

In the case of `OCc1nc2ccccc2[nH]1`, the melting point was in the range of 165 to 172 °C. Molecule `O=C(NC(Cc1ccsc1)C(=O)O)OCC1c2ccccc2-c2ccccc21` (centres undefined) showed a melting point of 188 °C. As for `CC(=O)O[Si](C)(C)OC(C)=O`, the figure is -12.5 °C; as for `OCc1csc(-c2ccc(C(F)(F)F)cc2)n1`, 107 °C; as for `COC(=O)c1sc(-c2ccc(C(C)(C)C)cc2)cc1N`, 156 to 157 °C. As for `CC12CCC(=O)N1C(c1ccccc1)CO2` (centres undefined), the figure is 125 °C. Take `COc1ccc2c(c1C)CC2C#N` (centres undefined): the melting point turned out to be 80 °C. Molecule `CCCCNC(=O)NNC(=O)OCC` returned a melting point of 97 °C.

Take `CCCCCCCCC=CCCCCCCCC(=O)OCCCC`: the melting point is -26.5 °C.

In turn, `O=C(Cl)C1COc2ccccc2O1` (centres undefined) gave a melting point of 56 to 57 °C. The molecule `O=Cc1ccc(-c2ccc(C(=O)O)cc2)cc1` displayed a melting point of 150 °C.

On to `Nc1c(F)cc(Cl)cc1Br`, for which the melting point fell in the range of 41 to 43 °C. For the molecule `Cc1nc(-c2ccccc2)c(CO)s1`, the melting point was in the range of 143 to 147 °C. On to `Cc1ccc(Sc2ncccc2C(N)=O)cc1`, for which the melting point lay in the range of 205 to 207 °C. The molecule `COc1ccc2c3c1OC1C(=O)CCC4(O)C(C2)N(C)CCC314` (centres undefined) gave a melting point of 219 °C. Take `COc1ccc(C(=O)CCC(=O)O)cc1`: the melting point came out at 149 °C.

On to `COC(=O)c1ccc(S(=O)(=O)NC(C)(C)C)n1C`, for which the melting point lay within 104 to 105 °C. The value for `Ic1cccc(Cn2cccn2)c1` was 51 to 54 °C; that for `CN1CCC(N2CCNCC2)CC1` was 31 °C.

In turn, `CSCCC(NC(C)=O)C(=O)O` (racemic) registered a melting point of 115 °C. On to `Cc1c2ccccc2nc2ccccc12`, for which the melting point was determined as 118 °C. Regarding `COc1ccc(N=C(CNc2ccc(OC)cc2)Nc2ccc(OC)cc2)cc1`, the melting point lay in the range of 158 to 159 °C. `S=C=NCC(c1ccccc1)c1ccccc1` had a melting point of 36 to 38 °C.

`Cc1cccc2cc3ccccc3cc12`: the melting point is 85.5 °C. As for `CCCc1cccc(O)c1`, the melting point was found to be 26 °C. `O=C(O)Cc1ccccc1C(=O)O` came in with a melting point of 178 to 182 °C.

The molecule `CCOC(=O)C(C#N)=NNc1ccc(Cl)cc1` displayed a melting point of 161 to 162 °C. As for `CC1(C)CC(C(=O)Oc2ccc([N+](=O)[O-])cc2)C(C)(C)N1O` (centres undefined), the figure is 77 to 80 °C; as for `O=C(NC(=S)Nc1ccccc1)c1ccccc1`, 159 to 161 °C. In turn, `O=[N+]([O-])c1ccc(C=Cc2cccc(CO)n2)o1` returned a melting point of 170 °C. `CCOC(C)=NOc1ccc([N+](=O)[O-])cc1[N+](=O)[O-]` showed a melting point of 112 °C.

By melting point is commonly meant the temperature, or range, at which the solid turns liquid.
